In patent US20100152434A1, “Protein Kinase-binding Nucleosides and Associated Methods” (priority 2007, published 2010):
Where two headings read alike, the source gives them in different places.

Legend:
MALME-3M = experiment: cells; conditions: Homo sapiens
LOX IMVI = experiment: cells; conditions: Homo sapiens
SK-MEL-5 [1] = experiment: cells; conditions: Homo sapiens
SK-MEL-2 = experiment: cells; conditions: Homo sapiens
OVCAR-8 [2] = system: OVCAR-8
HOP-62 = experiment: cells; conditions: Homo sapiens
ACHN [3] = system: ACHN
NCI-H23 [4] = system: NCI-H23
HCT-116 [5] = system: HCT-116
UO-31 = experiment: cells; conditions: Homo sapiens
HCT-116 [6] = experiment: cells; conditions: Homo sapiens
A498 [7] = experiment: cells; conditions: Homo sapiens
A498 [8] = system: A498
NCI-H23 [9] = experiment: cells; conditions: Homo sapiens
NCI-H322M = experiment: cells; conditions: Homo sapiens, NCI-H322M
EKVX [10] = experiment: cells; conditions: Homo sapiens
ACHN [11] = experiment: cells; conditions: Homo sapiens
EKVX [12] = system: EKVX
OVCAR-5 = experiment: cells; conditions: Homo sapiens
SK-MEL-5 [13] = system: SK-MEL-5
T-47D = experiment: cells; conditions: Homo sapiens, T47D
OVCAR-8 [14] = experiment: cells; conditions: Homo sapiens
UACC-257 = experiment: cells; conditions: Homo sapiens

## CNC(=O)NC[C@H]1O[C@@H](n2cnc3c(NC(=O)Nc4ccccc4)ncnc32)[C@H](O[Si](C)(C)C(C)(C)C)[C@@H]1CC(=O)N(C)OC [Compound 13, 2′-O-(tert-Butyldimethylsilyl)-3′,5′-dideoxy-3′-[(N-methoxy-N-methylcarboxamido)methyl]-5′-[(N-methylcarbamoyl)amino]-N^6-(N-phenylcarbamoyl)adenosine]
MALME-3M
  GI50: 11.4 µM
MALME-3M; read-out: LC50
  CC50: > 100 µM
LOX IMVI
  GI50: 7.3 µM
LOX IMVI; read-out: LC50
  CC50: > 100 µM
SK-MEL-5 [1]; SK-MEL-5
  GI50: 5.81 µM
SK-MEL-5 [1]; SK-MEL-5, read-out: LC50
  CC50: > 100 µM
SK-MEL-2; SK-MEL-2
  GI50: 14.9 µM
SK-MEL-2; SK-MEL-2, read-out: LC50
  CC50: > 100 µM
OVCAR-8 [2]
  TGI: >1.00E−4 Molar
OVCAR-8 [2]; Log10 Concentration −4.0
  Percent Growth: 22%
OVCAR-8 [2]; Log10 Concentration −5.0
  Percent Growth: 48%
OVCAR-8 [2]; Log10 Concentration −6.0
  Percent Growth: 103%
OVCAR-8 [2]; Log10 Concentration −7.0
  Percent Growth: 106%
OVCAR-8 [2]; Log10 Concentration −8.0
  Percent Growth: 107%
HOP-62; HOP-62
  GI50: 24.9 µM
HOP-62; HOP-62, read-out: LC50
  CC50: > 100 µM
ACHN [3]
  TGI: >1.00E−4 Molar
ACHN [3]; Log10 Concentration −4.0
  Percent Growth: 23%
ACHN [3]; Log10 Concentration −5.0
  Percent Growth: 55%
ACHN [3]; Log10 Concentration −6.0
  Percent Growth: 95%
ACHN [3]; Log10 Concentration −7.0
  Percent Growth: 102%
ACHN [3]; Log10 Concentration −8.0
  Percent Growth: 107%
SNB-75
  TGI: >1.00E−4 Molar
SNB-75; Log10 Concentration −4.0
  Percent Growth: 12%
SNB-75; Log10 Concentration −5.0
  Percent Growth: 54%
SNB-75; Log10 Concentration −6.0
  Percent Growth: 84%
SNB-75; Log10 Concentration −7.0
  Percent Growth: 95%
SNB-75; Log10 Concentration −8.0
  Percent Growth: 94%
NCI-H23 [4]
  TGI: >1.00E−4 Molar
NCI-H23 [4]; Log10 Concentration −4.0
  Percent Growth: 43%
NCI-H23 [4]; Log10 Concentration −5.0
  Percent Growth: 71%
NCI-H23 [4]; Log10 Concentration −6.0
  Percent Growth: 99%
NCI-H23 [4]; Log10 Concentration −7.0
  Percent Growth: 103%
NCI-H23 [4]; Log10 Concentration −8.0
  Percent Growth: 106%
HCT-116 [5]
  TGI: >1.00E−4 Molar
HCT-116 [5]; Log10 Concentration −4.0
  Percent Growth: 6%
HCT-116 [5]; Log10 Concentration −5.0
  Percent Growth: 26%
HCT-116 [5]; Log10 Concentration −6.0
  Percent Growth: 89%
HCT-116 [5]; Log10 Concentration −7.0
  Percent Growth: 90%
HCT-116 [5]; Log10 Concentration −8.0
  Percent Growth: 93%
UO-31; UO-31
  GI50: 7.79 µM
UO-31; UO-31, read-out: LC50
  CC50: > 100 µM
HCT-116 [6]; HCT-116
  GI50: 4.2 µM
HCT-116 [6]; HCT-116, read-out: LC50
  CC50: > 100 µM
A498 [7]; A498
  GI50: 3.87 µM
A498 [7]; A498, read-out: LC50
  CC50: > 100 µM
A498 [8]
  TGI: 4.03E−5 Molar
A498 [8]; Log10 Concentration −4.0
  Percent Growth: −16%
A498 [8]; Log10 Concentration −5.0
  Percent Growth: 24%
A498 [8]; Log10 Concentration −6.0
  Percent Growth: 87%
A498 [8]; Log10 Concentration −7.0
  Percent Growth: 96%
A498 [8]; Log10 Concentration −8.0
  Percent Growth: 90%
NCI-H23 [9]; NCI-H23
  GI50: 57.2 µM
NCI-H23 [9]; NCI-H23, read-out: LC50
  CC50: > 100 µM
NCI-H322M
  GI50: > 100 µM
NCI-H322M; read-out: LC50
  CC50: > 100 µM
SN12C
  TGI: >1.00E−4 Molar
SN12C; Log10 Concentration −4.0
  Percent Growth: 49%
SN12C; Log10 Concentration −5.0
  Percent Growth: 66%
SN12C; Log10 Concentration −6.0
  Percent Growth: 96%
SN12C; Log10 Concentration −7.0
  Percent Growth: 104%
SN12C; Log10 Concentration −8.0
  Percent Growth: 106%
EKVX [10]
  GI50: 26.4 µM
EKVX [10]; read-out: LC50
  CC50: > 100 µM
ACHN [11]
  GI50: 14.4 µM
ACHN [11]; read-out: LC50
  CC50: > 100 µM
SK-OV-3
  TGI: >1.00E−4 Molar
SK-OV-3; Log10 Concentration −4.0
  Percent Growth: 38%
SK-OV-3; Log10 Concentration −5.0
  Percent Growth: 82%
SK-OV-3; Log10 Concentration −6.0
  Percent Growth: 95%
SK-OV-3; Log10 Concentration −7.0
  Percent Growth: 97%
SK-OV-3; Log10 Concentration −8.0
  Percent Growth: 96%
EKVX [12]
  TGI: >1.00E−4 Molar
EKVX [12]; Log10 Concentration −4.0
  Percent Growth: 36%
EKVX [12]; Log10 Concentration −5.0
  Percent Growth: 60%
EKVX [12]; Log10 Concentration −6.0
  Percent Growth: 95%
EKVX [12]; Log10 Concentration −7.0
  Percent Growth: 95%
EKVX [12]; Log10 Concentration −8.0
  Percent Growth: 94%
OVCAR-5; OVCAR-5
  GI50: 38.2 µM
OVCAR-5; OVCAR-5, read-out: LC50
  CC50: > 100 µM
SK-MEL-5 [13]
  TGI: >1.00E−4 Molar
SK-MEL-5 [13]; Log10 Concentration −4.0
  Percent Growth: 11%
SK-MEL-5 [13]; Log10 Concentration −5.0
  Percent Growth: 38%
SK-MEL-5 [13]; Log10 Concentration −6.0
  Percent Growth: 89%
SK-MEL-5 [13]; Log10 Concentration −7.0
  Percent Growth: 98%
SK-MEL-5 [13]; Log10 Concentration −8.0
  Percent Growth: 104%
OVCAR-4
  TGI: >1.00E−4 Molar
OVCAR-4; Log10 Concentration −4.0
  Percent Growth: 46%
OVCAR-4; Log10 Concentration −5.0
  Percent Growth: 60%
OVCAR-4; Log10 Concentration −6.0
  Percent Growth: 96%
OVCAR-4; Log10 Concentration −7.0
  Percent Growth: 100%
OVCAR-4; Log10 Concentration −8.0
  Percent Growth: 100%
T-47D
  GI50: 13.9 µM
T-47D; read-out: LC50
  CC50: > 100 µM
OVCAR-8 [14]; OVCAR-8
  GI50: 9.02 µM
OVCAR-8 [14]; OVCAR-8, read-out: LC50
  CC50: > 100 µM
UACC-257; UACC-257
  GI50: 22.6 µM
UACC-257; UACC-257, read-out: LC50
  CC50: > 100 µM
M14
  TGI: >1.00E−4 Molar
M14; Log10 Concentration −4.0
  Percent Growth: 18%
M14; Log10 Concentration −5.0
  Percent Growth: 57%
M14; Log10 Concentration −6.0
  Percent Growth: 91%
M14; Log10 Concentration −7.0
  Percent Growth: 98%
M14; Log10 Concentration −8.0
  Percent Growth: 98%
